Earlier results on one substance are cited in article PMC6630532 (ACS Infectious Diseases, 2019).

The test system of the data set is bacteria. The following applies: read-out: IC50 (in vitro antimicrobial effect of killing 50% of the bacteria).

Broadly, the IC50 is the concentration that gives 50% inhibition. With H-TGRAKRRMQYNRR-NH2 [UBI29–41], the IC50 is 20 µM.
